We go through 20 molecules from ChEMBL document CHEMBL1129415, “Structure-activity relationship studies on benzofuran analogs of propafenone-type modulators of tumor cell multidrug resistance” (J Med Chem, 1996).

The test system of data set [1] is CCRF-CEM.
Description: Effective dose against CCRF-CEM vcr 100 cells by using rhodamine efflux studies.
Data set [2] can be described thus: Partition coefficient (logP). The class given is physicochemical. The conditions noted are these: octanol/water.
Data set [3] deals with CCRF-CEM. Kind of data set: Effective dose against CCRF-CEM vcr 100 cells by using MTT assay. The class given is functional, Homo sapiens.
Data set [4] has as its system CCRF-CEM. Kind of data set: Compound was tested for effective dose against CCRF-CEM vcr 100 cells by using MTT assay; na=not active. The class given is functional, cell-based. The note with it: Homo sapiens.
Data set [5] relates to CCRF-CEM. The conditions noted are these: Homo sapiens.
Description: Compound was tested for effective dose against CCRF-CEM vcr 100 cells by using rhodamine efflux studies; na=not active

Activity calls are given as the source filed them. The calls are words filed in the database; no cut-off is given here.

Consider `CCCNCC(O)COc1ccccc1C(=O)CCc1ccccc1` (stereo not drawn) [PROPAFENONE], for which the ED50 in data set [1] was determined as 3.55 uM l-1.
`COc1ccc(N2CCN(CC(O)COc3ccccc3C(=O)CCc3ccccc3)CC2)cc1` (stereo not drawn) gave a logP in data set [2] of 4.65. Also, the values for the ED50 in data set [3] and in data set [1] were 110 nM and 0.28 uM l-1, respectively.
On to `O=C(CCc1ccccc1)c1ccccc1OCC(O)CN1CCCC1` (stereo not drawn), for which the logP in data set [2] was 3.26. Further, the values for the ED50 in data set [3] and in data set [1] were 520 nM and 2.55 uM l-1, respectively.
For `CCCNCC(O)c1oc2ccccc2c1CCc1ccccc1` (stereo not drawn), in that order: 4.07, 1800 nM and 13.61 uM l-1.
The matching figures for `O=C(CCc1ccccc1)c1ccccc1OCC(O)CN1CCCCC1` (stereo not drawn): 3.67, 290 nM and 1.65 uM l-1.
The matching figures for `O=C(CCc1ccccc1)c1ccccc1OCC(O)CN1CCN(c2ccc(F)cc2)CC1` (stereo not drawn): 4.93, 150 nM and 0.16 uM l-1.
`O=C(CCc1ccccc1)c1ccccc1OCC(O)CN1CCOCC1` (stereo not drawn) came in with a logP in data set [2] of 2.54. Further, the ED50 worked out at 1490 nM in data set [3] and 13.56 uM l-1 in data set [1].
Consider `Cc1ccccc1N1CCN(CC(O)COc2ccccc2C(=O)CCc2ccccc2)CC1` (stereo not drawn), for which, in data set [2], the logP came to 5.26. In addition, the ED50 turned out to be 50 nM in data set [3] and 0.06 uM l-1 in data set [1].
Regarding `CC(=O)c1ccccc1OCC(O)CN1CCN(c2ccc(F)cc2)CC1` (stereo not drawn), the log partition coefficient (logP) in data set [2] came out at 2.67. The figures for the ED50 in data set [3] and in data set [1] were 890 nM and 8.61 uM l-1, respectively.
The molecule `CCC(=O)c1ccccc1OCC(O)CN1CCOCC1` (stereo not drawn) had a log partition coefficient (logP) in data set [2] of 0.94. For the same molecule, the ED50 result in data set [4] and in data set [5] was “inactive” each time.
Regarding `COc1ccccc1N1CCN(CC(O)c2oc3ccccc3c2CCc2ccccc2)CC1` (stereo not drawn), the logP in data set [2] amounted to 5.32. Moreover, the ED50 in data set [3] is 210 nM; in data set [1], 0.46 uM l-1.
The matching figures for `CCCN(C)CC(O)COc1ccccc1C(=O)CCc1ccccc1` (stereo not drawn): 3.77, 270 nM and 1.36 uM l-1.
For `CCCNCCc1oc2ccccc2c1CCc1ccccc1`, in that order: 4.71, 870 nM and 2.9 uM l-1.
For `CCN(CC)CC(O)COc1ccccc1C(=O)CCc1ccccc1` (stereo not drawn), in that order: 3.62, 390 nM and 1.4 uM l-1.
In the case of `O=C(CCc1ccccc1)c1ccccc1OCC(O)CNCc1ccccc1` (stereo not drawn), in data set [2], the logP was 4.3. The ED50 in data set [3] was 190 nM; in data set [1], 0.41 uM l-1.
`CC(C)NCCc1oc2ccccc2c1CCc1ccccc1` registered a logP in data set [2] of 4.54. In addition, the ED50 turned out to be 1100 nM in data set [3] and 5.8 uM l-1 in data set [1].
For `CCCNCC(O)c1oc2ccccc2c1CC` (stereo not drawn), in that order: 3.1, 4190 nM and 69.6 uM l-1.
For `COc1ccccc1N1CCN(CC(=O)c2oc3ccccc3c2CCc2ccccc2)CC1`, in that order: 5.05, 2020 nM and 4.96 uM l-1.
For `CN(C)CC(O)COc1ccccc1C(=O)CCc1ccccc1` (stereo not drawn), in that order: 2.94, 820 nM and 7.12 uM l-1.
`CC(C)N(CC(O)COc1ccccc1C(=O)CCc1ccccc1)C(C)C` (stereo not drawn): the lipophilicity (logP) in data set [2] was 4.25. Further, the ED50 in data set [3] is 290 nM; in data set [1], 0.61 uM l-1.
